Source: the NIST ThermoML archive (doi:10.1021/je301282p)

Experiments:
[1] = 308.15 K, Drop volume
[2] = xn = mol fraction of the nth substance listed; details: 308.15 K, Drop volume

Cc1ccc(C)cc1 [1,4-dimethylbenzene]
Details | surface tension liquid-gas [mN/m]
[1] | 26.29

CCOC(=O)OCC [diethyl carbonate] + CCCCCCCCCC
[2]
Details | surface tension liquid-gas [mN/m]
x1 = 0.0512 | 21.9
x1 = 0.0983 | 21.84
x1 = 0.1997 | 21.75
x1 = 0.2968 | 21.78
x1 = 0.406 | 21.84
x1 = 0.499 | 21.88
x1 = 0.5621 | 21.96
x1 = 0.5994 | 21.99
x1 = 0.6966 | 22.19
x1 = 0.7951 | 22.49
x1 = 0.9018 | 23.1
x1 = 0.9511 | 23.5

Cc1ccc(C)cc1 [1,4-dimethylbenzene] + COC(=O)OC
[2]
Details | surface tension liquid-gas [mN/m]
x2 = 0.0503 | 26.19
x2 = 0.1937 | 25.97
x2 = 0.2988 | 25.84
x2 = 0.4013 | 25.76
x2 = 0.5016 | 25.7
x2 = 0.6032 | 25.67
x2 = 0.7029 | 25.67
x2 = 0.7964 | 25.74
x2 = 0.8945 | 25.98
x2 = 0.9442 | 26.13

CCOC(=O)OCC [diethyl carbonate]
Details | surface tension liquid-gas [mN/m]
[1] | 24.02

Cc1ccc(C)cc1 [1,4-dimethylbenzene] + CCCCCCCCCC
[2]
Details | surface tension liquid-gas [mN/m]
x1 = 0.1047 | 22.18
x1 = 0.2152 | 22.39
x1 = 0.2977 | 22.57
x1 = 0.3945 | 22.79
x1 = 0.4993 | 23.11
x1 = 0.549 | 23.28
x1 = 0.5997 | 23.46
x1 = 0.7004 | 23.88
x1 = 0.8018 | 24.47
x1 = 0.9004 | 25.2
x1 = 0.9501 | 25.67

COC(=O)OC [dimethyl carbonate]
Details | surface tension liquid-gas [mN/m]
[1] | 26.55

COC(=O)OC [dimethyl carbonate] + CCCCCCCC
[2]
Details | surface tension liquid-gas [mN/m]
x1 = 0.0503 | 19.8
x1 = 0.0976 | 19.78
x1 = 0.196 | 19.85
x1 = 0.2941 | 19.93
x1 = 0.3969 | 20.09
x1 = 0.495 | 20.25
x1 = 0.5455 | 20.39
x1 = 0.5971 | 20.54
x1 = 0.6977 | 20.8
x1 = 0.7977 | 21.47
x1 = 0.8983 | 23.04
x1 = 0.9492 | 24.53

CCCCCCCCCC [decane]
Details | surface tension liquid-gas [mN/m]
[1] | 22.1

Cc1ccc(C)cc1 [1,4-dimethylbenzene] + CCCCCCCC
[2]
Details | surface tension liquid-gas [mN/m]
x1 = 0.0488 | 20.02
x1 = 0.109 | 20.25
x1 = 0.1953 | 20.52
x1 = 0.2973 | 20.96
x1 = 0.3959 | 21.41
x1 = 0.4978 | 21.91
x1 = 0.5503 | 22.2
x1 = 0.5935 | 22.46
x1 = 0.6966 | 23.11
x1 = 0.8004 | 23.93
x1 = 0.9017 | 24.92
x1 = 0.9504 | 25.5

CCCCCCCC [octane]
Details | surface tension liquid-gas [mN/m]
[1] | 19.9

CCOC(=O)OCC [diethyl carbonate] + Cc1ccc(C)cc1
[2]
Details | surface tension liquid-gas [mN/m]
x1 = 0.0995 | 25.98
x1 = 0.2009 | 25.68
x1 = 0.2985 | 25.42
x1 = 0.3971 | 25.18
x1 = 0.4956 | 24.94
x1 = 0.5433 | 24.83
x1 = 0.6007 | 24.7
x1 = 0.6457 | 24.6
x1 = 0.6995 | 24.49
x1 = 0.7986 | 24.3
x1 = 0.899 | 24.12
x1 = 0.9497 | 24.06

CCCCCCCCCC [decane] + COC(=O)OC
[2]
Details | surface tension liquid-gas [mN/m]
x2 = 0.0512 | 21.95
x2 = 0.09 | 21.92
x2 = 0.2006 | 21.9
x2 = 0.2853 | 21.92
x2 = 0.3971 | 21.97
x2 = 0.4949 | 22.11
x2 = 0.5987 | 22.01
x2 = 0.6988 | 22.18
x2 = 0.7971 | 22.54
x2 = 0.8983 | 23.81
x2 = 0.9505 | 24.82

CCOC(=O)OCC [diethyl carbonate] + CCCCCCCC
[2]
Details | surface tension liquid-gas [mN/m]
x1 = 0.049 | 19.83
x1 = 0.1008 | 19.89
x1 = 0.2 | 19.91
x1 = 0.2969 | 20.05
x1 = 0.3972 | 20.26
x1 = 0.4971 | 20.5
x1 = 0.5495 | 20.63
x1 = 0.5991 | 20.79
x1 = 0.695 | 21.16
x1 = 0.7938 | 21.7
x1 = 0.8978 | 22.63
x1 = 0.9504 | 23.33
